Data on four molecules can be found in patent US20240287044A1, “SALT OF SELECTIVE FGFR4 INHIBITOR, AND PREPARATION METHOD THEREFOR AND APPLICATION THEREOF” (ZHEJIANG HISUN PHARMACEUTICAL CO., LTD., priority 2021, published 2024).

Data set [1] in a line: Pharmacokinetic study on different salt forms (SD rats). It is filed as in vivo. The settings on record: 20 mg·kg^−1 single gavage, fasted, 0.5% CMC-Na, plasma. The method, then:
After vortex oscillation, ultrasonication was carried out. If necessary, shearing and emulsification or grinding could be carried out until well mixed, to obtain an administration formulation with a concentration of 2 mg· mL^−1.
(§1) Experimental animals were kept in animal rooms, which were well ventilated and equipped with air conditioning, and the temperature was maintained at 20-25° C., humidity at 40%-70%, and light and dark lighting for 12 hours each, and the experimental animals were allowed to eat and drink freely. After normal feeding for about 5 days, rats with good physical condition could be selected for this experiment after examination by a veterinary. Each rat was marked with a tail number.
(§2) The detailed administration regimen of the animal experiment is seen in Table 2. On the day before the experiment, all SD rats were fasted overnight (equal to or more than 12 hours). On the day of the experiment, after weighing, the theoretical administration volume for each rat was calculated according to the following formula. The administration formulation should be prepared on the day of the experiment, and the interval between preparation and administration should not exceed 2 hours. The actual administration amount of each rat and the collection time of the plasma sample should be recorded in detail in the corresponding table. SD rats were allowed to restore eating 4 hours after administration, and were allowed to drink water freely during the experiment.
Before and 0.25, 0.5, 1, 2, 4, 8, 12 and 24 hours after administration, 0.15 mL blood was collected from jugular vein and placed into anticoagulant tubes containing EDTA-K2.
All whole blood samples were subjected to centrifugation for 10 minutes (5500 rpm), and then the plasma was separated and stored in a refrigerator at −30° C. to −10° C.
The corresponding pharmacokinetic parameters were calculated using the […] of Pharsight Phoenix 7.0, and the results are shown in Table 3 below.

The subject of data set [2] is Hep3B human liver carcinoma subcutaneous transplanted tumor. Briefly: Subcutaneous transplantation model of Hep3B human liver carcinoma. Type of data set: in vivo, BALB/c nude mice. Conditions: for anti-tumor activity (in words): Hep3B model, 50 mg/kg twice a day gavage 10 days. The method, then:
Preparation of administration formulation for gavage administration: sorafenib, free-base compounds as represented by formula (I) and its maleate salts, phosphate salts, hydrochloride salts, mesylate salts, and ethanesulfonate salts were accurately weighed respectively, and an appropriate volume of normal saline was added, and then vortex oscillation was performed until mixed well, and the administration formulation was prepared just before use.
BALB/c nude mice, female, purchased from Jiangsu Jicui Pharmacom Biotechnology Co. Licence No.: SCXK (Su) 2019-0009, Animal Qualification Certificate No.: 202102418.
After arrival, animals were required to be kept in the experimental environment for 7 days before starting the experiment. The experimental animals were kept in intelligent independent ventilation cages (IVC) with constant temperature and humidity. The temperature was maintained at 20-26° C. and the humidity was maintained at 40-70%. Under a light-dark cycle of 10 hours light/14 hours dark, the experimental animals were allowed to free access to food and water. The animals were labeled using ear tag.
Establishment of subcutaneous tumor model of Hep3B cell: 0.2 mL of a cell suspension containing 3.5×10^6 Hep3B cells was inoculated subcutaneously on the right side of the back of female BALB/c nude mice aged over 6 weeks to establish a transplant tumor. The diameter of tumor was measured with a vernier caliper, and tumor volume was calculated using the following formula: tumor volume=0.5×a×b^2, where a and b represented the long and short diameter of the tumor, respectively. The tumor-bearing mice were randomly divided into 9 groups and administered according to the experimental design when the average tumor volume was at a range of 200-250 mm^3. Mice in each treatment group and solvent control group were subjected to orally intragastric administration for 10 days. The tumor volume of mice was measured twice weekly, and the body weight was weighed daily. The curative effect was assessed based on the relative tumor growth inhibition (TGI) rate (%), and safety was evaluated according to the change of body weight and mortality of animals.

The test system of data set [3] is hepatocellular carcinoma cells Hep3B. Conditions: in vitro, read-out: IC50 value, inhibitory activity against Hep3B; cited from earlier work.
Data set [4] is described as follows: Pharmacokinetics of different salt forms (ICR mice). Type of data set: in vivo. Conditions: plasma, 75 mg·kg^−1 single gavage, fasted, normal saline. The method, then:
After vortex oscillation, ultrasonication was carried out. If necessary, shearing and emulsification or grinding could be carried out until well mixed, to obtain an administration formulation with a concentration of 7.5 mg· mL^−1.
as §1
as §2, with “of the ICR mice experiment is” for “of the animal experiment is”, “in Table 5. On the” for “in Table 2. On the”, “experiment, all ICR mice were fasted” for “experiment, all SD rats were fasted”, “for each mouse was calculated” for “for each rat was calculated”, “corresponding table. ICR mice were allowed” for “corresponding table. SD rats were allowed”
Before and 0.25, 0.5, 1, 2, 4, 8, 10, 12 and 24 hours after administration, 0.15 mL blood was collected from fundus venous plexus and placed into anticoagulant tubes containing EDTA-K2.
All whole blood samples were subjected to centrifugation for 10 minutes (5500 rpm), and then the plasma was separated and stored in a refrigerator at −30 to −10° C.

[5] abbreviates: day 11 after administration, gavage 10 days, 50 mg/kg twice a day (based on formula (I)), sorafenib 30 mg/kg once a day.
The mark [6] stands for this setting: day 11 after administration, gavage 10 days, 50 mg/kg twice a day (based on formula (I)), sorafenib 30 mg/kg once a day, listed as sorafenib.

“And” between values parts separate entries of the source, which are not always exact repeats. Identical values can stand only once. Counter-ions that a name gives are not always drawn.

As for `C=CC(=O)Nc1cc(N2CCN(CC)C3(CC3)C2)ccc1Nc1cc(N(C)C(=O)Nc2c(Cl)c(OC)cc(OC)c2Cl)ncn1` [Free base, N-(2-((6-(3-(2,6-dichloro-3,5-dimethoxyphenyl)-1-methylureido)pyrimidin-4-yl)amino)-5-(4-ethyl-4,7-diazaspiro[2.5]octane-7-yl)phenyl) acrylamide], in data set [1], the AUC0-t stood at 194.55 ng·h/mL, the Cmax was determined as 52.74 ng/mL and the Tmax is on record as 4.00 h. For the same molecule, in data set [1] (SD, rat, po, 20 mg/kg), the half-life was 2.15 h. Further, the “anti-tumor activity (in words)” value in data set [2] is listed as “significant anti-tumor activity”. The “tumor volume (x ± S)” value in data set [2] (day 11 after administration, gavage 10 days, 50 mg/kg twice a day (based on formula (I)), sorafenib 30 mg/kg once a day, listed as compound as represented by formula) was 314 ± 72 mm^3. Moreover, the “tumor volume (x ± S)” value in data set [2] (day 11 after administration, gavage 10 days, 50 mg/kg twice a day (based on formula (I)), sorafenib 30 mg/kg once a day, listed as compound as represented by formula (I)) stood at 314 mm^3. For the same molecule, the IC50 in data set [3] is 19 nM.
As to `CNC(=O)c1cc(Oc2ccc(NC(=O)Nc3ccc(Cl)c(C(F)(F)F)c3)cc2)ccn1` [Sorafenib, reference compound], in data set [2] (setting [5]), the “T/C (%) relative tumor proliferation rate” value is 57.10%, the “TGI (%) relative tumor growth inhibition” value was 42.90%, the “relative tumor volume (x ± S)” value amounted to 5.50 ± 0.22 and the “tumor volume (x ± S)” value is listed as 1238 ± 199 mm^3. Further, in data set [2] (setting [6]), the “TGI (%) relative tumor growth inhibition” value came out at 42.9% and the “tumor volume (x ± S)” value worked out at 1238 mm^3.
Turning to `C=CC(=O)Nc1cc(N2CCN(CC)C3(CC3)C2)ccc1Nc1cc(N(C)C(=O)Nc2c(Cl)c(OC)cc(OC)c2Cl)ncn1` [ethanesulfonate salt], in data set [1], the AUC0-t was found to be 410.81 ng·h/mL, the Cmax stood at 141.81 ng/mL, the T1/2 worked out at 2.37 h and the Tmax is reported as 1.50 h. Also, in data set [4] (ICR, mouse, po, 75 mg/kg, read-out: AUC0-t), the AUC0-t was determined as 9660 ng·h/mL. Besides, the Cmax in data set [4] (ICR, mouse, po, 75 mg/kg, read-out: Cmax) is 4110 ng/mL. Besides, the Tmax in data set [4] (ICR, mouse, po, 75 mg/kg, read-out: Tmax) worked out at 0.5 h. Also, the “anti-tumor activity (in words)” value in data set [2] is listed as “significant anti-tumor activity”. In addition, the “tumor volume (x ± S)” value in data set [2] (setting [5]) is 121 mm^3 and 121 ± 17 mm^3.
As for `C=CC(=O)Nc1cc(N2CCN(CC)C3(CC3)C2)ccc1Nc1cc(N(C)C(=O)Nc2c(Cl)c(OC)cc(OC)c2Cl)ncn1` [mesylate salt], in data set [1], the AUC0-t came out at 357.27 ng·h/mL, the Cmax turned out to be 99.39 ng/mL, the T1/2 was found to be 3.01 h and the Tmax is 0.42 h. In addition, in data set [4], the AUC0-t worked out at 8660 ng·h/mL, the peak concentration (Cmax) stood at 3740 ng/mL, the T1/2 came to 1.78 h and the Tmax turned out to be 0.250 h. Also, the “anti-tumor activity (in words)” value in data set [2] is on record as “significant anti-tumor activity”. In addition, in data set [2] (setting [5]), the “tumor volume (x ± S)” value is 93 mm^3 and 93 ± 32 mm^3.
